For orientation: IC50 means the concentration that inhibits the measured activity by half. Lower therefore signals greater potency. As a reminder, the mortality is the percentage killed.

The target in series [1] is Programmed cell death protein 1/Programmed cell death 1 ligand 1 (Homo sapiens, UniProt Q15116+Q9NZQ7). Briefly: Inhibition of PD-1/PD-L1 (unknown origin) protein-protein interaction incubated for 15 mins by TR-FRET assay. It counts as protein-complex assay. For orientation: TR-FRET usually uses a lanthanide donor and a delayed reading to cut background.
Series [2] has as its system MDA-MB-231. Briefly: Antitumor immunity against human MDA-MB-231 cells cocultured with CD3/CD28/CD2 T cell activator stimulated human PBMC cells assessed as killing activity cell mortality rate at 0.5 uM pre-treated with compound for 2 hrs followed by addition of CD3/CD28/CD2 T cell activator stimulated human PBMC cells and measured after 12 hrs relative to control. The following applies: time 14 hrs. It counts as functional.

The test system of series [3] is PBMC. Briefly: Cytotoxicity against human PBMC cells at < 8 uM incubated for 24 hrs by CCK-8 method. It counts as toxicity, cell-based. (In general: Tetrazolium assays rely on reduction of a dye to a coloured formazan, in cell work by metabolically active cells.)
The subject of series [4] is Jurkat. Briefly: Cytotoxicity against human Jurkat cells at < 8 uM incubated for 24 hrs by CCK-8 method. The series is classed as functional, cell-based.
Series [5] deals with MDA-MB-231. Kind of series: Cytotoxicity against human MDA-MB-231 cells at 8 uM incubated for 24 hrs by CCK-8 method. The series is classed as functional, cell-based.
Series [6] deals with RKO. Kind of series: Cytotoxicity against human RKO cells at 8 uM incubated for 24 hrs by CCK-8 method. The series is classed as functional, cell-based.
Series [7] relates to MDA-MB-231. Briefly: Cytotoxicity against human MDA-MB-231 cells at 1.0 uM incubated for 24 hrs by CCK-8 method. It counts as functional, cell-based.
The test system of series [8] is MDA-MB-231. Kind of series: Antitumor immunity against human MDA-MB-231 cells cocultured with CD3/CD28/CD2 T cell activator stimulated human PBMC cells assessed as killing activity at 0.25 to 1 uM pre-treated with compound for 2 hrs followed by addition of CD3/CD28/CD2 T cell activator stimulated human PBMC cells and measured after 12 hrs. The series is classed as functional, cell-based. The following applies: dose 0.25-1 µM, time 14.0 hrs.

Series [9] concerns Jurkat. Briefly: Restoration of PD-L1 mediated IFN-gamma release in anti-CD3/CD28 stimulated human Jurkat cells at 0.5 uM incubated for 24 hrs by ELISA method. It counts as functional, cell-based. On the technique in general: ELISA stands for enzyme-linked immunosorbent assay.
Series [10] deals with Jurkat. Briefly: Restoration of PD-L1 mediated IFN-gamma release in anti-CD3/CD28 stimulated human Jurkat cells incubated for 24 hrs by ELISA method. The series is classed as functional, cell-based. The following applies: dose 0.25-2 µM.

The source made the active and inactive calls. The rule behind the calls is not given here.

Sequence of Programmed cell death protein 1/Programmed cell death 1 ligand 1 (Q15116 whole entry): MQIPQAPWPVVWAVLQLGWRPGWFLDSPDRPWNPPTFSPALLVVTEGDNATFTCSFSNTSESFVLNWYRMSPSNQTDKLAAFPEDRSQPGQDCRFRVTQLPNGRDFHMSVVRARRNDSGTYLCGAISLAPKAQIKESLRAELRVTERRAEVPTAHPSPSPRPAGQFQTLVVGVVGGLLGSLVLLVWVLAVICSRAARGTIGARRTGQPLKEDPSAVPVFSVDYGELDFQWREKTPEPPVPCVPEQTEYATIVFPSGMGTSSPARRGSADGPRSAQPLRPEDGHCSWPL
Sequence of Programmed cell death protein 1/Programmed cell death 1 ligand 1 (Q9NZQ7 whole entry): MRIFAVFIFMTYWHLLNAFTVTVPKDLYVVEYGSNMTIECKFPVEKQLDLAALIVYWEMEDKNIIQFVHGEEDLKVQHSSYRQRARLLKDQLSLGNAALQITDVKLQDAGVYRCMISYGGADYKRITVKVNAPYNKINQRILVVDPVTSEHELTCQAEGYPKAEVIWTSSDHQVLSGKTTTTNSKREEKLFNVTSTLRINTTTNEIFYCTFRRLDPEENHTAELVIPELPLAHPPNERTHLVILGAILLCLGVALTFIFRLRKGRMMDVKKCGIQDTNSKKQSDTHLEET

Regarding `COCCOc1cccc(-c2cccc3c2CC[C@@H]3Oc2nc(OC)c(CNCCO)cc2Cl)c1`, in series [1], inhibition was half-maximal at 94.5 nM (IC50).
In turn, `COc1nc(O[C@H]2CCc3c(-c4ccccc4)cccc32)c(Cl)cc1CNCCO` came in with an IC50 in [1] of 7.5 nM. This IC50 is about 13-fold lower than that of the compound before.
Compound `COc1nc(O[C@H]2CCCc3c(-c4ccccc4)cccc32)ccc1CNCCO` yielded an IC50 in series [1] greater than 100 nM.
In series [1], `COc1nc(O[C@@H]2CCc3c(-c4ccccc4)cccc32)ccc1CNCCNC(C)=O` came in with an IC50 of 84.8 nM. This counts as double-digit nanomolar.
Same read-out and setting: as for `COc1nc(O[C@H]2CCc3c(-c4ccc5c(c4)OCCO5)cccc32)c(Cl)cc1CNCCO`, the figure is 10.2 nM; as for `COc1nc(O[C@H]2CCc3c(-c4ccc5c(c4)OCCO5)cccc32)c(Cl)cc1CN1CC[C@H](O)C1`, 18 nM.
The same measure, in the same setting: as for `COc1nc(O[C@H]2CCc3c(-c4cccc(F)c4)cccc32)c(Cl)cc1CNCCO`, the figure is 24.7 nM.
On the same count and under the same terms, with `COc1nc(O[C@H]2CCc3c(-c4ccc5[nH]ccc5c4)cccc32)c(Cl)cc1CNCCO` the figure was greater than 100 nM.
For the compound `COc1nc(O[C@H]2CCc3c(-c4ccc(F)cc4)cccc32)c(Cl)cc1CNCCO`, half-maximal inhibition in [1] (IC50) was put at 37.8 nM. This counts as double-digit nanomolar.
Same read-out and setting: as for `COc1nc(O[C@H]2CCc3c(-c4ccc5c(c4)OCCO5)cccc32)c(Cl)cc1CNCCNC(C)=O`, the figure is 16.3 nM; as for `COc1nc(O[C@H]2CCc3c(-c4ccc5c(c4)OCCO5)cccc32)c(Cl)cc1CN1CC[C@@H](O)C1`, 69.4 nM; as for `COc1nc(O[C@H]2CCc3c(-c4ccc5c(c4)OCCO5)cccc32)c(Cl)cc1CNC[C@@H](O)CO`, 13.3 nM.
`COc1nc(O[C@H]2CCc3c(-c4ccccc4)cccc32)ccc1CNCCO` yielded an IC50 in series [1] of 24.4 nM.
Consider `COc1nc(OCc2cccc(-c3ccccc3)c2C)ccc1CNCCNC(C)=O`, for which the mortality at 0.5 µM in series [2] came to 45.1%.
Consider `COc1nc(O[C@H]2CCCc3c(-c4ccccc4)cccc32)ccc1CNCCNC(C)=O`, for which half-maximal inhibition in [1] (IC50) was put at 47.6 nM.
Still for that read-out and setting: with `COc1nc(O[C@H]2CCc3c(-c4ccc5c(c4)OCO5)cccc32)c(Cl)cc1CNCCO` the figure was 24.9 nM.
The compound `COc1nc(O[C@H]2CCc3c(-c4ccc5c(c4)OCCO5)cccc32)c(Cl)cc1CNC[C@@H](O)CC(=O)O` yielded an IC50 in series [1] of 14 nM. Against the preceding compound, the IC50 is about 1.8-fold lower.
The compound `COc1cccc(-c2cccc3c2CC[C@@H]3Oc2nc(OC)c(CNCCO)cc2Cl)c1` displayed an IC50 in series [1] greater than 100 nM.
Same read-out and setting: with `COc1nc(O[C@H]2CCc3c(-c4ccc5ccccc5c4)cccc32)c(Cl)cc1CNCCO` the figure was greater than 100 nM; with `COc1nc(O[C@H]2CCc3c(-c4ccc(F)c(F)c4)cccc32)c(Cl)cc1CNCCO`, 55.6 nM.
In [1], `COCCNCc1cc(Cl)c(O[C@H]2CCc3c(-c4ccc5c(c4)OCCO5)cccc32)nc1OC` yielded a concentration for half-maximal inhibition (IC50) of 43.1 nM.
As to `COc1nc(O[C@H]2CCc3c(-c4ccc5c(c4)OCCO5)cccc32)c(Cl)cc1CNCCN(C)C`, the IC50 in series [1] was 46.2 nM.
Still for that read-out and setting: with `COc1nc(O[C@@H]2CCc3c(-c4ccccc4)cccc32)ccc1CNCCO` the figure was 57.8 nM; with `COc1nc(O[C@H]2CCc3c(-c4ccc5c(c4)OCCO5)cccc32)c(Cl)cc1CNCC(F)(F)F`, 67 nM.
Still for that read-out and setting: as for `COc1nc(O[C@H]2CCc3c(-c4ccccc4)cccc32)ccc1CNCCNC(C)=O`, the figure is 21 nM; as for `COc1nc(O[C@H]2CCc3c(-c4ccc5c(c4)OCCO5)cccc32)c(Br)cc1CNCCO`, 51 nM; as for `COc1ccc(-c2cccc3c2CC[C@@H]3Oc2nc(OC)c(CNCCO)cc2Cl)cc1OC`, greater than 100 nM.
`COc1nc(O[C@@H]2CCc3c(-c4ccc5c(c4)OCCO5)cccc32)c(Cl)cc1CN1CC(O)C1`: half-maximal inhibition in series [1] (IC50) required 19.6 nM.
Same read-out and setting: as for `COc1nc(O[C@H]2CCc3c(-c4ccc5c(c4)OCCO5)cccc32)c(Cl)cc1CNCCC(N)=O`, the figure is 20.3 nM.
Still for that read-out and setting: as for `COc1nc(O[C@H]2CCc3c(-c4ccc5c(c4)OCCO5)cccc32)c(Cl)cc1CN1CC[C@H](C(=O)O)C1`, the figure is 16.4 nM; as for `COc1nc(O[C@H]2CCc3c(-c4ccc5c(c4)OCCO5)cccc32)c(Cl)cc1CNC[C@@H]1CCC(=O)N1`, 15.7 nM.
In turn, `COc1nc(O[C@H]2CCc3c(-c4ccccc4F)cccc32)c(Cl)cc1CNCCO` displayed an IC50 in series [1] of 2.2 nM. Further, the Activity entry was “Non-Toxic” in series [3] and “Dose-Dependent Effect” in [10]. The outcome in series [4], in series [5], in series [6], in series [8] and in [9] was Active. Further, in series [7], the outcome was inactive. Moreover, the mortality at 0.5 µM in [2] came to 40.9%.

For the origin of these results see ChEMBL document CHEMBL5370555, “Design, synthesis, and evaluation of PD-1/PD-L1 small-molecule inhibitors bearing a rigid indane scaffold” (Eur J Med Chem, 2023).
